Assay results as given in publication PMC8767972 (Slas Discovery, 2022).

Legend:
HKU1 main protease = HKU1 main protease (Human coronavirus HKU1, UniProt P0C6X2); assay type: biochemical, HKU1 CoV; conditions: read-out: HKU1 IC50
NL63 main protease = NL63 main protease (Human coronavirus NL63, UniProt P0C6X5); assay type: biochemical, NL63 CoV; conditions: read-out: NL63 IC50
NL63 main protease, sequence (P0C6X5 2940-3242 limits assumed): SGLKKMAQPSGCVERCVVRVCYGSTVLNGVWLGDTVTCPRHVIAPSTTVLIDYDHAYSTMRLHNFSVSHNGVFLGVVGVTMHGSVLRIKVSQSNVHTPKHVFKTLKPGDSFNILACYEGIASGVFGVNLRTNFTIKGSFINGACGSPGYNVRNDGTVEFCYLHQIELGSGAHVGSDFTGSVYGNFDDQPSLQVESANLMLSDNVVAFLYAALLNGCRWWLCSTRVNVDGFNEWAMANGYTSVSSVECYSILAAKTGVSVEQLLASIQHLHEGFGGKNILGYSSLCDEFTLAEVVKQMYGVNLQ

HKU1 main protease, sequence (P0C6X2 3335-3637 limits assumed): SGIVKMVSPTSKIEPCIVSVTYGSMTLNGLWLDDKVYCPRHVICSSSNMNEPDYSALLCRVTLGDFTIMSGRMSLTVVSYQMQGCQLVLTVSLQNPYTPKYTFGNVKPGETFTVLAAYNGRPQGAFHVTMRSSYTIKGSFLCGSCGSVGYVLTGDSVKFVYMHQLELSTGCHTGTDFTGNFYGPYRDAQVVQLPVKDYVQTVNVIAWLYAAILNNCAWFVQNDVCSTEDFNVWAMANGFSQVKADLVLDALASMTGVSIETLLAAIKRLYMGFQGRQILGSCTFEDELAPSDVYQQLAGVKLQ

CC(C)C[C@H](NC(=O)OCc1ccccc1)C(=O)N[C@@H](CC1CCNC1=O)C(O)S(=O)(=O)O (some centres unmarked) [GC376]
IC50 (HKU1 main protease): 12 nM | IC50 (NL63 main protease): 52 nM
